Test results published in patent publication US8431523B2, “Oligomeric biosurfactants in dermatocosmetic compositions” (priority 2006, dated 2013).
Non-standard residues stand in square brackets, D forms with d. Residues, ends and D or L forms follow the SMILES beside them. *: point of attachment. Palmitoyl = CCCCCCCCCCCCCCCC(=O)*; Myristoyl = CCCCCCCCCCCCCC(=O)*

The compounds below were run on fibroblast proliferation (assay: Cyquant Cell Proliferation Assay).
Type: cell-based
Method: For purposes of the present invention, proliferation is assessed using the Cyquant® Cell Proliferation Assay from Molecular Probes. This assay measures increased production of cellular nucleic acids that, in turn, results in increased binding of fluorescent dye.

Compound	increase fibroblast proliferation (qualitative)	increase fibroblast proliferation
CCCCCCCCCCCCCC(=O)N[C@@H](CCCCN)C(=O)N[C@H](C(=O)N[C@H](C(=O)N[C@@H](CCCCN)C(=O)N[C@@H](CO)C(N)=O)[C@@H](C)O)[C@@H](C)O [P190, Myr-KTTKS-amide] (Myristoyl-KTTKS-NH2)	increase fibroblast proliferation	
CCCCCCCCCCCCCC(=O)N[C@H](C(=O)N[C@@H](CCCCN)C(=O)N[C@H](C(=O)N[C@H](C(=O)N[C@@H](CCCCN)C(N)=O)[C@@H](C)O)[C@@H](C)O)[C@@H](C)O [P228, Myr-TKTTK-amide] (Myristoyl-TKTTK-NH2)	increase fibroblast proliferation	
CCCCCCCCCCCCCC(=O)N[C@@H](CCCCN)C(=O)N[C@@H](CC(C)C)C(=O)N[C@@H](C)C(=O)N[C@@H](CCCCN)C(=O)N[C@@H](CCCCN)C(=O)N[C@@H](C)C(=O)O [P252, Myr-KLAKKA-acid] (Myristoyl-KLAKKA-OH)	increase fibroblast proliferation	
CCCCCCCCCCCCCC(=O)N[C@@H](C)C(=O)N[C@@H](CCCCN)C(=O)N[C@@H](CCCCN)C(=O)N[C@@H](CC(C)C)C(=O)N[C@@H](C)C(=O)N[C@@H](CCCCN)C(=O)O [P256, Myr-AKKLAK-acid] (Myristoyl-AKKLAK-OH)	increase fibroblast proliferation	
CCCCCCCCCCCCCC(=O)NCC(=O)N[C@@H](C)C(=O)N[C@@H](CCCNC(=N)N)C(=O)O [P257, Myr-GAR-acid] (Myristoyl-Gly-Ala-Arg-OH)	increase fibroblast proliferation	
CCCCCCCCCCCCCC(=O)NCC(=O)N[C@@H](CCCNC(=N)N)C(=O)N[C@@H](CCCCN)C(=O)NCC(=O)N[C@@H](CC(=O)O)C(=O)O [P266, Myr-GRKGD-acid] (Myristoyl-GRKGD-OH)	increase fibroblast proliferation	
CCCCCCCCCCCCCC(=O)N[C@@H](CCCCN)C(=O)N[C@@H](CCCCN)C(=O)N[C@@H](C)C(=O)N[C@@H](CC(C)C)C(N)=O [P291, Myr-KKAL-amide] (Myristoyl-KKAL-NH2)	increase fibroblast proliferation	
CCCCCCCCCCCCCC(=O)N[C@@H](CCCCN)C(=O)N[C@@H](CCCCN)C(=O)NCC(=O)N[C@@H](CCC(=O)O)C(=O)N[C@@H](CCSC)C(=O)O [P293, Myr-KKGEM-acid] (Myristoyl-KKGEM-OH)	increase fibroblast proliferation	
CCCCCCCCCCCCCC(=O)NCC(=O)N[C@@H](CCCNC(=N)N)C(=O)NCC(=O)N[C@@H](CC(=O)O)C(=O)N[C@@H](CO)C(N)=O [P382, Myr-GRGDS-amide]	increase fibroblast proliferation	
CCCCCCCC(=O)NCC(=O)N[C@@H](CCCNC(=N)N)C(=O)NCC(=O)N[C@@H](CC(=O)O)C(=O)N[C@@H](CO)C(N)=O [P387, Oct-GRGDS-amide]	increase fibroblast proliferation	
CCCCCCCCCCCCCC(=O)N[C@@H](CC(=O)O)C(=O)N[C@@H](C)C(=O)N[C@@H](CC(=O)O)C(=O)O [P388, Myr-DAD-acid] (Myristoyl-Asp-Ala-Asp-OH)	increase fibroblast proliferation	
CCCCCCCCCCCCCC(=O)N[C@@H](CC(=O)O)C(=O)N[C@@H](CC(=O)O)C(=O)N[C@@H](C)C(=O)N[C@@H](CC(=O)O)C(=O)O [P389, Myr-DDAD-acid] (Myristoyl-DDAD-OH)	increase fibroblast proliferation	
CCCCCCCCCCCCCC(=O)N[C@@H](CCCCN)C(=O)N[C@H](C(=O)N[C@@H](C)C(=O)N[C@@H](CCCCN)C(=O)N[C@H](CCCCN)C(N)=O)[C@@H](C)CC [P401, Myr-KIAK-[K]^D-amide] (Myristoyl-KIAK[dK]-NH2)	increase fibroblast proliferation	
CCCCCCCCCCCCCC(=O)N[C@@H](CC(C)C)C(=O)N[C@@H](CCCCN)C(=O)N[C@@H](CCCCN)C(=O)N[C@@H](C)C(=O)N[C@@H](CC(C)C)C(=O)N[C@H](CCCCN)C(=O)O [P406, Myr-LKKAL-[K]^D-acid] (Myristoyl-LKKAL[dK]-OH)	increase fibroblast proliferation	
CCCCCCCCCCCCCC(=O)N[C@@H](CC(=O)O)C(=O)N[C@@H](CC(=O)O)C(=O)N[C@@H](CO)C(=O)N[C@@H](CO)C(=O)N[C@@H](CCCCN)C(=O)N[C@@H](CCCCN)C(N)=O [P411, Myr-DDSSKK-amide] (Myristoyl-DDSSKK-NH2)	increase fibroblast proliferation	
CCCCCCCCCCCCCC(=O)N[C@@H](CC(=O)O)C(=O)N[C@@H](CC(=O)O)C(=O)N[C@@H](CC(C)C)C(=O)N[C@@H](C)C(=O)N[C@@H](CCCCN)C(=O)N[C@@H](CCCCN)C(N)=O [P412, Myr-DDLAKK-amide] (Myristoyl-DDLAKK-NH2)	increase fibroblast proliferation	
CCCCCCCCCCCCCC(=O)N[C@@H](CCCCN)C(=O)N[C@@H](CC(C)C)C(=O)N[C@@H](C)C(=O)N[C@@H](CCCCN)C(=O)N[C@H](CCCCN)C(N)=O [P414, Myr-KLAK-[K]^D-amide] (Myristoyl-KLAK[dK]-NH2)	increase fibroblast proliferation	
CCCCCCCCCCCCCC(=O)N[C@H](C(=O)N[C@H](C(=O)N[C@H](C(=O)N[C@H](C(=O)N[C@H](C(=O)N[C@@H](CCCCN)C(N)=O)[C@@H](C)CC)[C@@H](C)CC)[C@@H](C)CC)[C@@H](C)CC)[C@@H](C)CC [P417, Myr-IIIIIK-amide] (Myristoyl-IIIIIK-NH2)	increase fibroblast proliferation	
CCCCCCCCCCCCCC(=O)N[C@H](C(=O)N[C@H](C(=O)N[C@H](C(=O)N[C@@H](CCCCN)C(=O)N[C@@H](CCCCN)C(N)=O)[C@@H](C)CC)[C@@H](C)CC)[C@@H](C)CC [P418, Myr-IIIKK-amide] (Myristoyl-IIIKK-NH2)	increase fibroblast proliferation	
Dod-KKALK-amide [P328]	increase fibroblast proliferation	
Myr-K-[K]^D-A-[L]^D-amide [P361]	increase fibroblast proliferation	
Myr-KGL-[K]^D-amide (Myristoyl-KGL[dK]-NH2; SMILES CCCCCCCCCCCCCC(=O)N[C@@H](CCCCN)C(=O)NCC(=O)N[C@@H](CC(C)C)C(=O)N[C@H](CCCCN)C(N)=O) [P405]	increase fibroblast proliferation	
Myr-KKALKL-amide (Myristoyl-KKALKL-NH2; SMILES CCCCCCCCCCCCCC(=O)N[C@@H](CCCCN)C(=O)N[C@@H](CCCCN)C(=O)N[C@@H](C)C(=O)N[C@@H](CC(C)C)C(=O)N[C@@H](CCCCN)C(=O)N[C@@H](CC(C)C)C(N)=O) [P380]	increase fibroblast proliferation	
Pal-AARK-amide (Palmitoyl-AARK-NH2; SMILES CCCCCCCCCCCCCCCC(=O)N[C@@H](C)C(=O)N[C@@H](C)C(=O)N[C@@H](CCCNC(=N)N)C(=O)N[C@@H](CCCCN)C(N)=O) [P397]	increase fibroblast proliferation	
Pal-KKLAK-amide (Palmitoyl-KKLAK-NH2; SMILES CCCCCCCCCCCCCCCC(=O)N[C@@H](CCCCN)C(=O)N[C@@H](CCCCN)C(=O)N[C@@H](CC(C)C)C(=O)N[C@@H](C)C(=O)N[C@@H](CCCCN)C(N)=O) [P333]	increase fibroblast proliferation	
Pal-VGVAPG-amide (Palmitoyl-VGVAPG-NH2; SMILES CCCCCCCCCCCCCCCC(=O)N[C@H](C(=O)NCC(=O)N[C@H](C(=O)N[C@@H](C)C(=O)N1CCC[C@H]1C(=O)NCC(N)=O)C(C)C)C(C)C) [P247]		at least 30%

Each compound was assayed on P. cepacia (assay: Minimum inhibitory concentration, P. cepacia).
Type: cell-based, Pseudomonas cepacia
Description: By “antimicrobial” activity is meant the ability to inhibit the growth of at least one microbial organism selected from the group consisting E. coli, P. aeruginosa, S. aureus and C. albicans, as confirmed by optical density measurement (“OD”). By “inhibition of growth” is meant reduction or absence of an increase greater than 5% in OD, a dimensionless measure of turbidity that is proportional to the amount of microbial cells present in a sample. For illustrative purposes, a OAB according to the present invention is added to a culture plate on which E. coli is present at a final concentration of about 5×10^3 cfu/ml. The plate is then incubated at about 37° C. for about 24 hours at which time the E. coli is resuspended by shaking, and OD is measured at about 600 nm. Thus, a reduction or absence of an increase greater than 5% in OD confirms the antimicrobial nature of the OAB with respect to E. coli. Minimum inhibitory concentration (“MIC”) is a method well-known to those of skill in the art for expressing antimicrobial activity. A compound to be tested is serially diluted into growth medium, inoculated with culture and then incubated. The MIC is the lowest dilution of compound that inhibits or prevents growth of the target microorganism.

Compound	MIC(P. cepacia)
CCCCCCCCCCCCCC(=O)N[C@@H](CCCCN)C(=O)N[C@H](C(=O)N[C@H](C(=O)N[C@@H](CCCCN)C(=O)N[C@@H](CO)C(N)=O)[C@@H](C)O)[C@@H](C)O [P190, Myr-KTTKS-amide] (Myristoyl-KTTKS-NH2)	≤ 100 ppm
CCCCCCCCCCCCCC(=O)N[C@H](CC(C)C)C(=O)N[C@H](CCCCN)C(=O)N[C@H](CCCCN)C(=O)N[C@H](C)C(=O)N[C@H](CC(C)C)C(=O)N[C@H](CCCCN)C(=O)O [P286, Myr-d-[LKKALK]-acid] (Myristoyl-[dL][dK][dK][dA][dL][dK]-OH)	≤ 100 ppm
CCCCCCCCCCCCCC(=O)N[C@@H](CCCCN)C(=O)N[C@@H](CCCCN)C(=O)N[C@@H](C)C(=O)N[C@@H](CC(C)C)C(N)=O [P291, Myr-KKAL-amide] (Myristoyl-KKAL-NH2)	≤ 100 ppm
CCCCCCCCCCCCCC(=O)N1CCC[C@H]1C(=O)N[C@@H](CCCCN)C(=O)N[C@@H](CCCCN)C(=O)N[C@@H](C)C(=O)N[C@@H](CC(C)C)C(=O)N[C@@H](CCCCN)C(N)=O [P364, Myr-PKKALK-amide] (Myristoyl-PKKALK-NH2)	≤ 100 ppm
CCCCCCCCCCCCCC(=O)N[C@@H](CCCCN)C(=O)N[C@@H](CCCCN)C(=O)N[C@@H](CC(C)C)C(=O)N[C@@H](C)C(=O)N[C@H](CCCCN)C(N)=O [P365, Myr-KKLA-[K]^D-amide] (Myristoyl-KKLA[dK]-NH2)	≤ 100 ppm
CCCCCCCCCCCCCCCC(=O)N[C@@H](C)C(=O)N[C@@H](C)C(=O)N[C@@H](CCCCN)C(=O)N[C@@H](CCCNC(=N)N)C(N)=O [P398, Pal-AAKR-amide] (Palmitoyl-AAKR-NH2)	≤ 100 ppm
